Assay results published in patent US10173991B2, “Sulfone amide linked benzothiazole inhibitors of endothelial lipase” (BRISTOL-MYERS SQUIBB COMPANY, priority 2014, dated 2019).

Target: Endothelial lipase (EL) (Homo sapiens (Human), UniProt Q9Y5X9)
Experiment: Endothelial lipase (EL) enzymatic assay with fluorescent substrate A10070 in DMPG vesicles
Assay type: biochemical
Method in brief: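 Vesicles prepared: A10070 dried with DMPG, resuspended in HEPES pH 8.0/NaCl/EDTA, sonicated on ice. Enzyme incubated with compound 30 min at 37° C. Reaction started with 1:10 diluted vesicles. Fluorescence (490/530 nm) followed 60 min; slope from 300–900 secs gives rate.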

Sequence of Endothelial lipase (EL) (Q9Y5X9 21-500): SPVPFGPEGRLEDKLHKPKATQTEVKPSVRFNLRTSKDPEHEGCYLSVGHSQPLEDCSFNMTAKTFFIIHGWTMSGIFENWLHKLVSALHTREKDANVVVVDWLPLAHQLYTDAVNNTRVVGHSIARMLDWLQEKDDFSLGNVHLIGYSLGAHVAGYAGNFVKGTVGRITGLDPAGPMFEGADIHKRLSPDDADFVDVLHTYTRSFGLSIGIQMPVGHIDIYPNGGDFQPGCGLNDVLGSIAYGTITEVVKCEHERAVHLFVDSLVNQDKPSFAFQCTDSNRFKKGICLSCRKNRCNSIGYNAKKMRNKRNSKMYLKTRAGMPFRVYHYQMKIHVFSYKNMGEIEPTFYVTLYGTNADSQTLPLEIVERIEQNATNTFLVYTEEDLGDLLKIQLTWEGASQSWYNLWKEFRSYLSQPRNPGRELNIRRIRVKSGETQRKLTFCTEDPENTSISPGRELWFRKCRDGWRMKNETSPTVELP

IC50 [µM] | Structure (SMILES)
0.125 | COCCS(=O)(=O)C(C(=O)NCC(=O)NC1CC1)c1nc2ccc(-c3ccc(C4CC4)nc3)cc2s1 (stereo not shown) [Example 300, N-[(cyclopropyl-carbamoyl)methyl]-2-[6-(6-cyclopropyl-pyridin-3-yl)-1,3-benzothiazol-2-yl]-2-(2-methoxyethane-sulfonyl)acetamide]
0.001 | COCCS(=O)(=O)C(C(=O)NCC(=O)NC1CC1)c1nc2cc(-c3ccc(NC(=O)OCc4ccccc4)cc3)c(F)cc2s1 (stereo not shown) [Example 10, benzyl N-{4-[2-({[(cyclopropyl-carbamoyl)methyl]carbamoyl}(2-methoxyethane-sulfonyl)methyl)-6-fluoro-1,3-benzothiazol-5-yl]phenyl} carbamate]
0.042 | COCCS(=O)(=O)C(C(=O)NCC(=O)NC1CC1)c1nc2cc(-c3ccc4c(c3)CC(=O)N4)c(F)cc2s1 (stereo not shown) [Example 349, N-[(cyclopropyl-carbamoyl)methyl]-2-[6-fluoro-5-(2-oxo-2,3-dihydro-1H-indol-5-yl)-1,3-benzothiazol-2-yl]-2-(2-methoxyethane-sulfonyl)acetamide]
0.025 | COCCS(=O)(=O)C(C(=O)NCC(=O)NC1CC1)c1nc2cc(-c3ccc(N4CCCC4)nc3)ccc2s1 (stereo not shown) [Example 71, N-[(cyclopropyl-carbamoyl)methyl]-2-(2-methoxyethane-sulfonyl)-2-{5-[6-(pyaolidin-1-yl)pyridin-3-yl]-1,3-benzothiazol-2-yl} acetamide]
0.012 | COCCS(=O)(=O)C(C(=O)NCC(=O)NC1CC1)c1nc2cc(F)c(-c3ccc(=O)n(C(C)C)c3)cc2s1 (stereo not shown) [Example 160, N-[(cyclopropyl-carbamoyl)methyl]-2-{5-fluoro-6-[6-oxo-1-(propan-2-yl)-1,6-dihydropyridin-3-yl]-1,3-benzothiazol-2-yl}-2-(2-methoxyethane-sulfonyl) acetamide]
0.012 | COCCS(=O)(=O)C(C(=O)NCC(=O)NC1CC1)c1nc2cc(F)c(-c3ccc(C4CC4)nc3)cc2s1 (stereo not shown) [Example 159, N-[(cyclopropyl-carbamoyl)methyl]-2-[6-(6-cyclopropyl-pyridin-3-yl)-5-fluoro-1,3-benzothiazol-2-yl]-2-(2-methoxyethane-sulfonyl) acetamide]
0.019 | COCCS(=O)(=O)C(C(=O)NCC(=O)NC1CC1)c1nc2cc(-c3cccc(C(=O)N4CCN(C)CC4)c3)ccc2s1 (stereo not shown) [Example 397, N-[(cyclopropyl-carbamoyl)methyl]-2-(2-methoxyethane-sulfonyl)-2-{5-[3-(4-methylpiperazine-1-carbonyl)phenyl]-1,3-benzothiazol-2-yl}acetamide]
0.007 | CS(=O)(=O)C(C(=O)NCC(=O)NC1CC1)c1nc2cc(-c3ccc(F)nc3)c(F)cc2s1 (stereo not shown) [Example 359, N-[(cyclopropyl-carbamoyl)methyl]-2-[6-fluoro-5-(6-fluoropyridin-3-yl)-1,3-benzothiazol-2-yl]-2-methanesulfonyl-acetamide]
0.007 | COCCS(=O)(=O)C(C(=O)NCC(=O)NC1CC1)c1nc2cc(F)c(-c3cnc(C4CC4)nc3)cc2s1 (stereo not shown) [Example 155, N-[(cyclopropyl-carbamoyl)methyl]-2-[6-(2-cyclopropyl-pyrimidin-5-yl)-5-fluoro-1,3-benzothiazol-2-yl]-2-(2-methoxyethane-sulfonyl) acetamide]
0.003 | COC(=O)Nc1ccc(-c2cc3sc(C(C(=O)NCC(=O)NC4CC4)S(=O)(=O)CCN4CCOCC4)nc3cc2F)cc1 (stereo not shown) [Example 422, methyl N-{4-[2-({[(cyclopropyl-carbamoyl)methyl]carbamoyl}[2-(morpholin-4-yl)ethanesulfonyl]methyl)-5-fluoro-1,3-benzothiazol-6-yl]phenyl} carbamate]
0.039 | Cc1ncc(-c2ccc3nc(C(C(=O)NCC(=O)NC4CC4)S(=O)(=O)c4ccc(F)cc4)sc3c2)cn1 (stereo not shown) [Example 452, N-[(cyclopropyl-carbamoyl)methyl]-2-(4-fluorobenzene-sulfonyl)-2-[6-(2-methylpyrimidin-5-yl)-1,3-benzothiazol-2-yl]acetamide]
0.014 | COCCS(=O)(=O)C(C(=O)NCC(=O)NC1CC1)c1nc2ccc(-c3ccnc(O)c3)cc2s1 (stereo not shown) [Example 600, N-[(cyclopropyl-carbamoyl)methyl]-2-[6-(2-hydroxypyridin-4-yl)-1,3-benzothiazol-2-yl]-2-(2-methoxyethane-sulfonyl)acetamide]
0.021 | COC(=O)Nc1cccc(-c2cc(F)c3nc(C(C(=O)NCC(=O)NC4CC4)S(=O)(=O)N(C)C)sc3c2)c1 (stereo not shown) [Example 503, methyl N-{3-[2-({[(cyclopropyl-carbamoyl)methyl]carbamoyl} (dimethyl-sulfamoyl)methyl)-4-fluoro-1,3-benzothiazol-6-yl]phenyl} carbamate]
0.025 | CS(=O)(=O)C(C(=O)NCC(=O)NC1CC1)c1nc2cc(-c3cccnc3F)c(F)cc2s1 (stereo not shown) [Example 367, N-[(cyclopropyl-carbamoyl)methyl]-2-[6-fluoro-5-(2-fluoropyridin-3-yl)-1,3-benzothiazol-2-yl]-2-methanesulfonyl-acetamide]
0.055 | COCCS(=O)(=O)C(C(=O)NCC(=O)NCCOC(C)C)c1nc2cc(-c3cnc(C)nc3)c(F)cc2s1 (stereo not shown) [Example 356, 2-[6-fluoro-5-(2-methylpyrimidin-5-yl)-1,3-benzothiazol-2-yl]-2-(2-methoxyethane-sulfonyl)-N-({[2-(propan-2-yloxy)ethyl]carbamoyl}methyl)acetamide]
0.002 | COCCS(=O)(=O)C(C(=O)NCC(=O)NC1CC1)c1nc2cc(C)c(-c3ccc4c(cnn4C)c3)cc2s1 (stereo not shown) [Example 148, N-[(cyclopropyl-carbamoyl)methyl]-2-(2-methoxyethane-sulfonyl)-2-[5-methyl-6-(1-methyl-1H-indazol-5-yl)-1,3-benzothiazol-2-yl] acetamide]
0.003 | COCCS(=O)(=O)C(C(=O)NCC(=O)Nc1ccccc1)c1nc2ccc(-c3ccc(F)nc3)cc2s1 (stereo not shown) [Example 383, 2-[6-(6-fluoropyridin-3-yl)-1,3-benzothiazol-2-yl]-2-(2-methoxyethane-sulfonyl)-N-[(phenyl-carbamoyl)methyl]acetamide]
0.02 | CS(=O)(=O)C(C(=O)NCC(=O)NC1CC1)c1nc2ccc(-c3ccc(C(=O)NCC(F)(F)F)cc3)cc2s1 (stereo not shown) [Example 103, 4-[2-({[(cyclopropyl-carbamoyl)methyl]carbamoyl} (methanesulfonyl)methyl)-1,3-benzothiazol-6-yl]-N-(2,2,2-trifluoroethyl) benzamide]
0.009 | COCCS(=O)(=O)C(C(=O)NCC(=O)NC1CC1)c1nc2cc(F)c(-c3ccc(NC(N)=O)cc3)cc2s1 (stereo not shown) [Example 4, 2-{6-[4-(carbamoyl-amino)phenyl]-5-fluoro-1,3-benzothiazol-2-yl}-N-[(cyclopropyl-carbamoyl)methyl]-2-(2-methoxy-ethanesulfonyl) acetamide]
0.011 | COCCOC(=O)Nc1ccc(-c2cc3sc(C(C(=O)NCC(=O)NC4CC4)S(C)(=O)=O)nc3cc2F)cn1 (stereo not shown) [Example 36, 2-methoxyethyl N-{5-[2-({[(cyclopropyl-carbamoyl)methyl]carbamoyl} (methanesulfonyl)methyl)-5-fluoro-1,3-benzothiazol-6-yl]pyridin-2-yl}carbamate]
0.009 | COCCN(C)C(=O)c1ccc(-c2ccc3nc(C(C(=O)NCC(=O)NC4CC4)S(=O)(=O)CCOC)sc3c2)cc1F (stereo not shown) [Example 568, 4-[2-({[(cyclopropyl-carbamoyl)methyl]carbamoyl}(2-methoxyethane-sulfonyl)methyl)-1,3-benzothiazol-6-yl]-2-fluoro-N-(2-methoxyethyl)-N-methylbenzamide]
0.02 | O=C(CNC(=O)C(c1nc2ccc(-c3ccc(F)nc3)cc2s1)S(=O)(=O)Cc1ccc(OC(F)(F)F)cc1)NC1CC1 (stereo not shown) [Example 513, N-[(cyclopropyl-carbamoyl)methyl]-2-[6-(6-fluoropyridin-3-yl)-1,3-benzothiazol-2-yl]-2-{[4-(trifluoromethoxy)phenyl]methanesulfonyl} acetamide]
0.071 | COCCS(=O)(=O)C(C(=O)NCC(=O)NC1CC1)c1nc2cc(-c3ccc(Cl)cn3)ccc2s1 (stereo not shown) [Example 83, 2-[5-(5-chloropyridin-2-yl)-1,3-benzothiazol-2-yl]-N-[(cyclopropyl-carbamoyl)methyl]-2-(2-methoxyethane-sulfonyl)acetamide]
0.004 | C[C@@H]1CN(C(=O)c2ccc(-c3ccc4nc(C(C(=O)NCC(=O)NC5CC5)S(C)(=O)=O)sc4c3)cc2)C[C@H](C)O1 (stereo partly drawn) [Example 570, N-[(cyclopropyl-carbamoyl)methyl]-2-(6-{4-[(2R,6S)-2,6-dimethyl-morpholine-4-carbonyl]phenyl}-1,3-benzothiazol-2-yl)-2-methanesulfonyl-acetamide]
0.018 | COCCS(=O)(=O)C(C(=O)NCC(=O)NC1CC1)c1nc2cc(-c3ccc4c(c3)C(=O)NC4)c(F)cc2s1 (stereo not shown) [Example 350, N-[(cyclopropyl-carbamoyl)methyl]-2-[6-fluoro-5-(3-oxo-2,3-dihydro-1H-isoindol-5-yl)-1,3-benzothiazol-2-yl]-2-(2-methoxyethane-sulfonyl)acetamide]
0.015 | CS(=O)(=O)C(C(=O)NCC(=O)NC1CC1)c1nc2cc(F)c(-c3ccnc(C(F)(F)F)c3)cc2s1 (stereo not shown) [Example 325, N-[(cyclopropyl-carbamoyl)methyl]-2-{5-fluoro-6-[2-(trifluoromethyl)pyridin-4-yl]-1,3-benzothiazol-2-yl}-2-methanesulfonyl-acetamide]
0.002 | COC(=O)Nc1ccc(-c2cc(F)c3nc(C(C(=O)NCC(=O)NC4CC4)S(=O)(=O)N(C)C)sc3c2)cc1 (stereo not shown) [Example 496, methyl N-{4-[2-({[(cyclopropyl-carbamoyl)methyl]carbamoyl} (dimethyl-sulfamoyl)methyl)-4-fluoro-1,3-benzothiazol-6-yl]phenyl} carbamate]
0.001 | COCCS(=O)(=O)C(C(=O)NCC(=O)NCCOc1ccccc1)c1nc2ccc(-c3ccc(F)nc3)cc2s1 (stereo not shown) [Example 380, 2-[6-(6-fluoropyridin-3-yl)-1,3-benzothiazol-2-yl]-2-(2-methoxyethane-sulfonyl)-N-{[(2-phenoxyethyl)carbamoyl]methyl} acetamide]
